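Results reflect a 48-hour exposure of cells in 96-well plates to compound at five concentrations. The concentration for 50% growth inhibition is given as GI50. TGI: total growth inhibition.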 Where a SMILES comes first, the peptide text is derived from it. [ ]: non-standard residue; d: D form. The star is where a group is joined. ξ: configuration not given here. ξD = NC(CC(=O)O)C(=O)O; Ac3c = NC1(C(=O)O)CC1; Boc = CC(C)(C)OC(=O)*; OBn = c1ccc(CO*)cc1
What was measured:
Assay in all cases: NCI tumour cell line growth inhibition, 48 h
[1] = system: HCT-116 colon
[2] = system: IGROV1 ovarian
[3] = system: NCI-H226 lung
[4] = system: HCT-15 colon
[5] = system: RXF 393 renal
[6] = system: MCF7 breast
[7] = system: OVCAR-3 ovarian
[8] = system: KM12 colon
[9] = system: DU-145 prostate
[10] = system: SNB-75 CNS

Molecule `COc1cc(/C=C2\N=C(c3ccccc3)N(/N=C3\C(=O)Nc4ccccc43)C2=O)cc(OC)c1OC` has a TGI [1] greater than 100 µM, a TGI [2] greater than 100 µM and a TGI [3] greater than 100 µM. For the same molecule, the TGI [4] was greater than 100 µM, the TGI [5] was greater than 100 µM and the TGI [6] was greater than 100 µM. It also gave a TGI [7] greater than 100 µM, a TGI [8] greater than 100 µM and a TGI [9] greater than 100 µM. It also gave a TGI [10] greater than 100 µM.

With `CCOC(=O)C(NC(=O)CC(C)C)(Nc1ccc(C(F)(F)F)cc1)C(F)(F)F` (stereo unspecified) the TGI [1] was greater than 100 µM, the TGI [2] was greater than 100 µM and the TGI [3] was greater than 100 µM. The TGI [4] was greater than 100 µM, the TGI [5] was greater than 100 µM and the TGI [6] was greater than 100 µM. For the same molecule, the TGI [7] was greater than 100 µM, the TGI [8] was 55.6 µM and the TGI [9] was greater than 100 µM. For the same molecule, the TGI [10] was 60.9 µM.

Molecule `C=C1C(=O)O[C@H]2C/C(C)=C/CC/C(C)=C/CC[C@@](C)(O)[C@@H](I)C[C@@H]12` has a TGI [1] of 12.3 µM, a TGI [2] of 10.2 µM and a TGI [3] of 12.2 µM. The TGI [4] was 20.1 µM, the TGI [5] was 13.2 µM and the TGI [6] was 25.1 µM. It also gave a TGI [7] of 24.9 µM, a TGI [8] of 18.5 µM and a TGI [9] of 22.2 µM. The TGI [10] was 25.1 µM.

`Cc1ccc(NC(=S)Nc2c(C)n(C)n(-c3ccccc3)c2=O)cc1` showed a TGI [1] greater than 100 µM, a TGI [2] greater than 100 µM and a TGI [3] greater than 100 µM. For the same molecule, the TGI [4] was greater than 100 µM, the TGI [5] was greater than 100 µM and the TGI [6] was greater than 100 µM. The TGI [7] was greater than 100 µM, the TGI [8] was greater than 100 µM and the TGI [9] was greater than 100 µM. It also gave a TGI [10] greater than 100 µM.

Molecule `O=C(Nc1nnc(-c2ccccc2)o1)C(SC(=S)N1CCOCC1)c1ccccc1` (stereo unspecified) has a TGI [1] greater than 100 µM, a TGI [2] greater than 100 µM and a TGI [3] greater than 100 µM. The TGI [4] was greater than 100 µM, the TGI [5] was greater than 100 µM and the TGI [6] was greater than 100 µM. The TGI [7] was 79.7 µM, the TGI [8] was greater than 100 µM and the TGI [9] was greater than 100 µM. For the same molecule, the TGI [10] was greater than 100 µM.

`O=c1[nH]c(=O)n(COCc2ccccc2)c2ccc(Br)cc12` was tested, and the TGI [1] was greater than 100 µM, the TGI [2] was greater than 100 µM and the TGI [3] was greater than 100 µM. The TGI [4] was greater than 100 µM, the TGI [5] was greater than 100 µM and the TGI [6] was greater than 100 µM. It also gave a TGI [7] greater than 100 µM, a TGI [8] greater than 100 µM and a TGI [9] greater than 100 µM. For the same molecule, the TGI [10] was greater than 100 µM.

`Cc1cccc2nc3cccc(C(=O)NCCC[N+](C)(CCCNC(=O)c4cccc5nc6cccc(C)c6nc45)Cc4c([N+](=O)[O-])ncn4C)c3nc12` gave a TGI [1] greater than 1100 µM, a TGI [2] greater than 1100 µM and a GI50 [3] of 0.11 µM. The TGI [3] was 267 µM, the GI50 [4] was 13.6 µM and the TGI [4] was greater than 1100 µM. It also gave a GI50 [5] of 339 µM, a TGI [5] greater than 1100 µM and a GI50 [6] of 2.34 µM. It also gave a TGI [6] of 96.9 µM, a TGI [7] greater than 1100 µM and a GI50 [8] of 17.5 µM. It also gave a TGI [8] greater than 1100 µM, a GI50 [9] of 20.8 µM and a TGI [9] greater than 1100 µM. It also gave a TGI [10] greater than 1100 µM.

`CC1(C)CN(c2ccccc2)C(=O)C1OC(=O)[C@@]1(C)C[C@@H]2C=C[C@H]1C2` (stereo partly specified) showed a TGI [1] of 35.8 µM, a TGI [2] of 41.3 µM and a TGI [3] of 53.6 µM. It also gave a TGI [4] of 55.1 µM, a TGI [5] of 35.4 µM and a TGI [6] of 58 µM. The TGI [7] was greater than 100 µM, the TGI [8] was 45.2 µM and the TGI [9] was greater than 100 µM. The TGI [10] was 75 µM.

Molecule `COC(=O)C1(NC(=O)C(CC(=O)OCc2ccccc2)NC(=O)OC(C)(C)C)CC1` (stereo unspecified) (Boc-[ξD](OBn)-[Ac3c]-OMe) has a TGI [1] greater than 100 µM, a TGI [2] greater than 100 µM and a TGI [3] greater than 100 µM. The TGI [4] was greater than 100 µM, the TGI [5] was greater than 100 µM and the TGI [6] was greater than 100 µM. It also gave a TGI [7] greater than 100 µM, a TGI [8] greater than 100 µM and a TGI [9] greater than 100 µM. The TGI [10] was greater than 100 µM.

`COC(=O)/C=C\C(C#N)(C#N)N=Cc1ccc(C)s1` gave a TGI [1] of 2.65 µM, a TGI [2] of 4.94 µM and a TGI [3] of 31.4 µM. It also gave a TGI [4] of 3.66 µM, a TGI [5] of 3.42 µM and a TGI [6] of 4.05 µM. It also gave a TGI [7] of 9.81 µM, a TGI [8] of 31.8 µM and a TGI [9] of 9.11 µM. For the same molecule, the TGI [10] was 19.9 µM.

Molecule `O=C(NCCCCNCCCNC(=O)c1ccccc1)c1ccccc1` has a TGI [1] greater than 100 µM, a TGI [2] greater than 100 µM and a TGI [3] greater than 100 µM. It also gave a TGI [4] greater than 100 µM, a TGI [5] greater than 100 µM and a TGI [6] greater than 100 µM. For the same molecule, the TGI [7] was greater than 100 µM, the TGI [8] was greater than 100 µM and the TGI [9] was greater than 100 µM. It also gave a TGI [10] greater than 100 µM.

`O=C(OCCN1CCCCC1)C(c1ccccc1)C1(O)CCSCC1` (stereo unspecified) was tested, and the TGI [1] was greater than 100 µM, the TGI [2] was greater than 100 µM and the TGI [3] was greater than 100 µM. The TGI [4] was greater than 100 µM, the TGI [5] was greater than 100 µM and the TGI [6] was greater than 100 µM. It also gave a TGI [7] greater than 100 µM, a TGI [8] greater than 100 µM and a TGI [9] greater than 100 µM. It also gave a TGI [10] greater than 100 µM.

`COc1ccc2c(c1)nc1n2C(N)=Nc2ccccc2S1` gave a TGI [1] greater than 100 µM, a TGI [2] greater than 100 µM and a TGI [3] greater than 100 µM. It also gave a TGI [4] greater than 100 µM, a TGI [5] greater than 78.3 µM and a TGI [6] greater than 100 µM. For the same molecule, the TGI [7] was 67.8 µM, the TGI [8] was 34.2 µM and the TGI [9] was greater than 100 µM. For the same molecule, the TGI [10] was greater than 100 µM.

`Cc1cc(Nc2ccc(N=Nc3ccc(O)c4ncccc34)cc2)nc(C)n1` was tested, and the TGI [1] was 44.6 µM, the TGI [2] was 32 µM and the TGI [3] was 44.1 µM. For the same molecule, the TGI [4] was 36 µM, the TGI [5] was 34.6 µM and the TGI [6] was 52.2 µM. It also gave a TGI [7] greater than 29.5 µM, a TGI [8] of 33.3 µM and a TGI [9] of 69.7 µM. For the same molecule, the TGI [10] was 43.6 µM.

`COc1c(OC)c(O)c2c(=O)c(OC)c(-c3ccc4c(c3)OCO4)oc2c1O` was tested, and the TGI [1] was greater than 100 µM, the TGI [2] was greater than 100 µM and the TGI [3] was greater than 100 µM. It also gave a TGI [4] greater than 100 µM, a TGI [5] greater than 100 µM and a TGI [6] greater than 100 µM. It also gave a TGI [7] greater than 100 µM, a TGI [8] greater than 100 µM and a TGI [9] greater than 100 µM. The TGI [10] was greater than 100 µM.

In the case of `O=C(c1ccccc1)c1c(C(F)(F)F)n([O-])c2cc(Cl)c(Cl)cc2[n+]1=O`, the TGI [1] is reported as 0.989 µM, the TGI [2] is reported as 0.984 µM and the TGI [3] is reported as 13.7 µM. For the same molecule, the TGI [4] was 2.76 µM, the TGI [5] was 5.52 µM and the TGI [6] was 1.24 µM. For the same molecule, the TGI [7] was 0.815 µM, the TGI [8] was 1.08 µM and the TGI [9] was 0.985 µM. It also gave a TGI [10] of 2.58 µM.

Molecule `O=C(/C=C/c1ccc(-c2ccccc2)cc1)NCc1ccc(C(=O)NCCc2c[nH]c3ccccc23)cc1` has a TGI [1] greater than 100 µM, a TGI [2] greater than 100 µM and a TGI [3] of 60.1 µM. For the same molecule, the TGI [4] was greater than 100 µM, the TGI [5] was greater than 100 µM and the TGI [6] was greater than 100 µM. For the same molecule, the TGI [7] was 92.6 µM, the TGI [8] was greater than 100 µM and the TGI [9] was greater than 100 µM. It also gave a TGI [10] of 42.8 µM.
